Laboratory results published in ChEMBL document CHEMBL1201862, “PubChem BioAssay data set” (2004).
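Tested at 5 concentrations; 48 h exposure; 96-well plates; endpoints linearly interpolated, else capped at highest concentration. GI50 = concentration required for 50% inhibition of growth.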 Active and inactive are the calls of the source. No stated cut-off is given here; in the data, active = GI50 up to about 1.1 µM and inactive = higher.

Experiments:
Assay in all cases: NCI tumour cell line growth inhibition, 48 h
MDA-MB-231 = tested on: MDA-MB-231
DU-145 = tested on: DU-145
NCI-H522 = tested on: NCI-H522
NCI-H460 = tested on: NCI-H460
BT-549 = tested on: BT-549
CCRF-CEM = tested on: CCRF-CEM
MDA-MB-435 = tested on: MDA-MB-435
Malme-3M = tested on: Malme-3M
MDA-N = tested on: MDA-N
TK-10 = tested on: TK-10
KM12 = tested on: KM12
HCT-116 = tested on: HCT-116
T47D = tested on: T47D
HT-29 = tested on: HT-29
M14 = tested on: M14
OVCAR-8 = tested on: OVCAR-8
Hs-578T = tested on: Hs-578T
LOX IMVI = tested on: LOX IMVI
MCF7 = tested on: MCF7
COLO 205 = tested on: COLO 205

| SMILES | GI50 (MDA-MB-231) | GI50 (DU-145) | GI50 (NCI-H522) | GI50 (NCI-H460) | GI50 (BT-549) | GI50 (CCRF-CEM) | GI50 (MDA-MB-435) | GI50 (Malme-3M) | GI50 (MDA-N) | GI50 (TK-10) | GI50 (KM12) | GI50 (HCT-116) | GI50 (T47D) | GI50 (HT-29) | GI50 (M14) | GI50 (OVCAR-8) | GI50 (Hs-578T) | GI50 (LOX IMVI) | GI50 (MCF7) | GI50 (COLO 205) |
| --- | --- | --- | --- | --- | --- | --- | --- | --- | --- | --- | --- | --- | --- | --- | --- | --- | --- | --- | --- | --- |
| CN(C)CN1CSC(=S)N(CN(C)C)C1 | > 100 µM (inactive) | > 100 µM (inactive) | 42 µM (inactive) | 42.6 µM (inactive) | > 100 µM (inactive) | 8.15 µM (inactive) | > 100 µM (inactive) | > 100 µM (inactive) | > 100 µM (inactive) | > 100 µM (inactive) | > 100 µM (inactive) | > 100 µM (inactive) | > 100 µM (inactive) | > 100 µM (inactive) | > 100 µM (inactive) | > 100 µM (inactive) | > 100 µM (inactive) | > 100 µM (inactive) |  |  |
| CC(Nc1cc(=O)n(C)c(=O)[nH]1)c1ccccc1 (stereo not drawn) | > 100 µM (inactive) | > 100 µM (inactive) | > 100 µM (inactive) | > 100 µM (inactive) | > 100 µM (inactive) | > 100 µM (inactive) | > 100 µM (inactive) |  | > 100 µM (inactive) | > 100 µM (inactive) | > 100 µM (inactive) | > 100 µM (inactive) | > 100 µM (inactive) | > 100 µM (inactive) | > 100 µM (inactive) | > 100 µM (inactive) | > 100 µM (inactive) | > 100 µM (inactive) | > 100 µM (inactive) | > 100 µM (inactive) |
| Cc1ccc(S(=O)(=O)c2[nH]cc(/C(=C\C3CCCCC3)[N+](=O)[O-])c2C2CCCCC2)cc1 | 0.217 µM (active) | 0.596 µM (active) | 0.208 µM (active) | 1.22 µM (inactive) | 0.28 µM (active) | 0.272 µM (active) | 0.398 µM (active) | 0.564 µM (active) | 0.301 µM (active) | 0.544 µM (active) | 1.79 µM (inactive) | 0.216 µM (active) | 0.303 µM (active) | 0.497 µM (active) | 0.236 µM (active) | 0.368 µM (active) | 0.324 µM (active) | 0.202 µM (active) |  | 0.25 µM (active) |
| CCOC(=O)CCC(C(=O)OCC)n1nc2ccc(Nc3c(C)[n+]([O-])c4cc(Cl)ccc4[n+]3[O-])cc2n1 (stereo not drawn) |  | > 100 µM (inactive) | 40 µM (inactive) | 24.3 µM (inactive) | > 100 µM (inactive) | 49.3 µM (inactive) | 69.7 µM (inactive) | > 100 µM (inactive) | 98.4 µM (inactive) | > 100 µM (inactive) | > 100 µM (inactive) | 30.1 µM (inactive) | 32.9 µM (inactive) | 64.9 µM (inactive) | > 100 µM (inactive) | > 100 µM (inactive) | 59.6 µM (inactive) | 58.3 µM (inactive) | 38.2 µM (inactive) | 75.7 µM (inactive) |
| CC1=C(C(=O)NCCCN(CCO)CCO)CC(C(=O)NCCCN(CCO)CCO)=C(C)N1 | 40.7 µM (inactive) | > 100 µM (inactive) | 98.9 µM (inactive) | > 100 µM (inactive) | > 100 µM (inactive) | 19.1 µM (inactive) | 56 µM (inactive) |  | 86.1 µM (inactive) | > 100 µM (inactive) | 85.1 µM (inactive) | > 100 µM (inactive) | 62.1 µM (inactive) | > 100 µM (inactive) | > 100 µM (inactive) | > 100 µM (inactive) | 29.1 µM (inactive) | > 100 µM (inactive) | > 100 µM (inactive) | > 100 µM (inactive) |
| CCCCCCOc1ccc(NC2=C(Cl)C(=O)c3ncccc3C2=O)cc1 |  | 1.5 µM (inactive) |  | 1.55 µM (inactive) | 1.76 µM (inactive) | 1.21 µM (inactive) | 1.7 µM (inactive) | 1.91 µM (inactive) | 1.52 µM (inactive) | 4.31 µM (inactive) | 1.33 µM (inactive) | 1.16 µM (inactive) | 1.68 µM (inactive) | 3.87 µM (inactive) | 1.88 µM (inactive) | 3.43 µM (inactive) | 1.79 µM (inactive) | 1.61 µM (inactive) | 1.11 µM (active) |  |
| CCCCCC/C=C\CCCCCCCCCc1cccc(OC)c1O | > 100 µM (inactive) | > 100 µM (inactive) | 47.1 µM (inactive) |  | > 100 µM (inactive) | > 100 µM (inactive) | > 100 µM (inactive) | > 100 µM (inactive) | 85.9 µM (inactive) | > 100 µM (inactive) | 80 µM (inactive) | 44.2 µM (inactive) | > 100 µM (inactive) | > 100 µM (inactive) | > 100 µM (inactive) | 38.3 µM (inactive) | > 100 µM (inactive) | > 100 µM (inactive) | 75.5 µM (inactive) | > 100 µM (inactive) |
| Cc1nn(C(=O)c2ccncc2)c2c1C(c1ccccc1[N+](=O)[O-])SC(=N)N2 (stereo not drawn) | > 10 µM (inactive) | > 10 µM (inactive) |  | > 10 µM (inactive) | > 10 µM (inactive) | 8.24 µM (inactive) | > 10 µM (inactive) | > 10 µM (inactive) | > 10 µM (inactive) | > 10 µM (inactive) | > 10 µM (inactive) | > 10 µM (inactive) | > 10 µM (inactive) | > 10 µM (inactive) | > 10 µM (inactive) | > 10 µM (inactive) | > 10 µM (inactive) | > 10 µM (inactive) | > 10 µM (inactive) | > 10 µM (inactive) |
| CCC(=O)Nc1ccc(NS(=O)(=O)c2ccc(Cl)cc2)cc1 |  | > 100 µM (inactive) | > 100 µM (inactive) | > 100 µM (inactive) | > 100 µM (inactive) | > 100 µM (inactive) | > 100 µM (inactive) | > 100 µM (inactive) | > 100 µM (inactive) |  | > 100 µM (inactive) | > 100 µM (inactive) | > 100 µM (inactive) | > 100 µM (inactive) | > 100 µM (inactive) | > 100 µM (inactive) | > 100 µM (inactive) | > 100 µM (inactive) | > 100 µM (inactive) | > 100 µM (inactive) |
| O=C(O)C1CCCCN1C(=O)Cc1c[nH]c2ccccc12 (stereo not drawn) | 29 µM (inactive) | > 100 µM (inactive) | > 100 µM (inactive) | > 100 µM (inactive) | > 100 µM (inactive) | > 100 µM (inactive) | > 100 µM (inactive) | > 100 µM (inactive) | > 100 µM (inactive) | > 100 µM (inactive) | > 100 µM (inactive) | > 100 µM (inactive) | > 100 µM (inactive) | > 100 µM (inactive) | > 100 µM (inactive) | > 100 µM (inactive) |  | > 100 µM (inactive) | > 100 µM (inactive) | > 100 µM (inactive) |
| COc1cccc(-n2c(N)c(-c3nc4cc(C(F)(F)F)ccc4s3)c3ccc([N+](=O)[O-])cc3c2=O)c1 | > 100 µM (inactive) | > 100 µM (inactive) | > 100 µM (inactive) | > 100 µM (inactive) | > 100 µM (inactive) |  | > 100 µM (inactive) | > 100 µM (inactive) | > 100 µM (inactive) | > 100 µM (inactive) | > 100 µM (inactive) | > 100 µM (inactive) | > 100 µM (inactive) | > 100 µM (inactive) | > 100 µM (inactive) |  |  |  | > 100 µM (inactive) | > 100 µM (inactive) |
| C[C@@H]1[C@@H](c2ccccc2)O[B-](c2ccccc2)(c2ccccc2)[N+]1(C)C | > 100 µM (inactive) | > 100 µM (inactive) | 58.2 µM (inactive) | > 100 µM (inactive) | 43.6 µM (inactive) | 61.4 µM (inactive) | 98.6 µM (inactive) | 78 µM (inactive) | 54.1 µM (inactive) | 54.7 µM (inactive) | > 100 µM (inactive) | 59.3 µM (inactive) | 54.5 µM (inactive) | > 100 µM (inactive) | 34.5 µM (inactive) | 99.5 µM (inactive) | 54.2 µM (inactive) | > 100 µM (inactive) |  | 33 µM (inactive) |
| Cc1ncc([N+](=O)[O-])n1CCNC(=O)CCCn1ccnc1[N+](=O)[O-] | > 100 µM (inactive) | > 100 µM (inactive) |  | > 100 µM (inactive) | > 100 µM (inactive) | > 100 µM (inactive) | > 100 µM (inactive) | > 100 µM (inactive) | > 100 µM (inactive) | > 100 µM (inactive) | > 100 µM (inactive) | > 100 µM (inactive) | > 100 µM (inactive) | > 100 µM (inactive) | > 100 µM (inactive) | > 100 µM (inactive) | > 100 µM (inactive) | > 100 µM (inactive) | > 100 µM (inactive) | > 100 µM (inactive) |
| Oc1[nH]c(Nc2cc(Cl)cc(Cl)c2)nc2ncnc1-2 | > 75 µM (inactive) | > 75 µM (inactive) |  | > 75 µM (inactive) | > 75 µM (inactive) | > 75 µM (inactive) | > 75 µM (inactive) | > 75 µM (inactive) | > 75 µM (inactive) | > 75 µM (inactive) | > 75 µM (inactive) | > 75 µM (inactive) | > 75 µM (inactive) | > 75 µM (inactive) | > 75 µM (inactive) | > 75 µM (inactive) | 17.9 µM (inactive) | > 75 µM (inactive) | > 75 µM (inactive) | > 75 µM (inactive) |
| CC(C)=CCC/C(C)=C/COc1c2ccoc2cc2oc(=O)ccc12 [BERGAMOTTIN] | 24.4 µM (inactive) |  | 19 µM (inactive) | 29.9 µM (inactive) | 44.3 µM (inactive) | 18 µM (inactive) | 34.6 µM (inactive) | 33.5 µM (inactive) | 34.7 µM (inactive) | 42.2 µM (inactive) | 32.7 µM (inactive) | 23.8 µM (inactive) | 19.3 µM (inactive) | 19.7 µM (inactive) | 27.7 µM (inactive) | 43.7 µM (inactive) | 48.1 µM (inactive) | 21 µM (inactive) | 19.1 µM (inactive) | 17.5 µM (inactive) |
